Assay results from patent US10508092B2, “Synthesis of novel analogs of diptoindonesin G, compounds formed thereby, and pharmaceutical compositions containing them” (Wisconsin Alumni Research Foundation, priority 2016, dated 2019).

Tests used:
[1] = test system: estrogen receptor β (ERβ); assay: Western blot of FLAG-ERβ levels in Hs578T-ERβLuc Dox-inducible cells; type: cell-based, human; settings: Hs578T-ERβLuc Dox-inducible line, 10 μM, 5 days, Western blot (anti-FLAG)
Protocol: FIGS. 2A, 2B, and 2C together depict the biological activity of the subject compounds on estrogen receptor β (ERβ) levels in human breast cancer cells.
The biological activity of these four analogs were then compared with the parent compound Dip G following our previous protocol (Zhao et al., supra). See FIGS. 1A, 1B, 1C, 2A, 2B, and 2C. Cells were treated with each compound at 10 μM concentration in order to evaluate how well each modified the stability of ERα and ERβ.
MCF7 cells were treated with Dip G and analogs for 24 hours before harvesting. Hs578T-tet-on-ERβ cells (ATCC HTB-126; American Type Culture Collection, Manassas, Va.) were treated with doxycycline for 24 hours to induce ERβ expression. Then the cells were treated with compounds for 5 days before harvesting. 15 μg of total cell lysates were resolved on SDS-PAGE and Western blot analyses were performed as previously described using ERα antibody (HC-20, Santa Cruz Biotechnology, Inc., Dallas, Tex.) and anti-FLAG antibody (F7425, Sigma-Aldrich Co., LLC, St. Louis, Mo.) for ERβ.^3

[2] = test system: ERα Y537S; assay: ERE-Luciferase activity of ERα Y537S in T47D cells; type: cell-based, human
Protocol: FIG. 6 is a histogram depicting Dip G- and Dip G-D1-inhibited E2-dependent ERE-Luciferase activities of wildtype ERα or ERα Y537S in T47D cells. Cells were co-treated with 10 nM E2 and Dip G or Dip G-D1 (10 μM) for 24 hrs. The experiments were performed in triplicate. Data are represented as mean±SD, n=3.
See Merenbakh-Lamin, K., Ben-Baruch, N., Yeheskel, A., Dvir, A., Soussan-Gutman, L., Jeselsohn, R., Yelensky, R., Brown, M., Miller, V. A., Sarid, D. et al. (2013) “D538G mutation in estrogen receptor-alpha: A novel mechanism for acquired endocrine resistance in breast cancer,” Cancer research, 73:6856-6864 and Jeselsohn, R., Yelensky, R., Buchwalter, G., Frampton, G., Meric-Bernstam, F., Gonzalez-Angulo, A. M., Ferrer-Lozano, J., Perez-Fidalgo, J. A., Cristofanilli, M., Gomez, H. et al. (2014) “Emergence of constitutively active estrogen receptor-alpha mutations in pretreated advanced estrogen receptor-positive breast cancer,” Clinical cancer research: an official journal of the American Association for Cancer Research, 20:1757-1767. Using these ERα mutant expressing cell lines, we will: (a) compare ERα degradation rate induced by fulvestrant, Dip G and Dip G-D1 using ELISA assay as shown in FIG. 5; (b) measure IC50 of Dip G and Dip G analogues to inhibit ERα transcriptional activity in luciferase assay.

[3] = Maximum tolerated dose in mouse models; settings: in vivo, five days out of seven
Protocol: Dip G was synthesized as described and formulated for the in vivo treatment. Dip G was prepared by dissolving the stock powder in 100% DMSO to a final concentration of 50 mg/ml. This stock solution was then diluted 1:5 into a 40% polyethylene glycol (PEG300)/40% normal saline (0.9% NaCl) solution to a final concentration of 20% Dip G solution. […] To determine MTD, escalating doses of Dip G dissolved in the aforementioned formulation were injected retro-orbitally or by oral gavage daily, five days out of seven to determine the MTD. […] (Data not shown.) Dip G was intra-tumorally delivered to ERα-positive T47D xenografted mice three times a week and the tumors were monitored for three weeks. […] (AST ELISAs are available commercially from several suppliers, including Abcam, Cambridge, Mass.)

[4] = Pharmacokinetics (plasma concentration by HPLC and LC/MS) in mice; type: in vivo; settings: mouse
[5] = target: T1, ERα (Homo sapiens, UniProt P03372); assay: Direct binding to ERα
T1 sequence (P03372 1-595): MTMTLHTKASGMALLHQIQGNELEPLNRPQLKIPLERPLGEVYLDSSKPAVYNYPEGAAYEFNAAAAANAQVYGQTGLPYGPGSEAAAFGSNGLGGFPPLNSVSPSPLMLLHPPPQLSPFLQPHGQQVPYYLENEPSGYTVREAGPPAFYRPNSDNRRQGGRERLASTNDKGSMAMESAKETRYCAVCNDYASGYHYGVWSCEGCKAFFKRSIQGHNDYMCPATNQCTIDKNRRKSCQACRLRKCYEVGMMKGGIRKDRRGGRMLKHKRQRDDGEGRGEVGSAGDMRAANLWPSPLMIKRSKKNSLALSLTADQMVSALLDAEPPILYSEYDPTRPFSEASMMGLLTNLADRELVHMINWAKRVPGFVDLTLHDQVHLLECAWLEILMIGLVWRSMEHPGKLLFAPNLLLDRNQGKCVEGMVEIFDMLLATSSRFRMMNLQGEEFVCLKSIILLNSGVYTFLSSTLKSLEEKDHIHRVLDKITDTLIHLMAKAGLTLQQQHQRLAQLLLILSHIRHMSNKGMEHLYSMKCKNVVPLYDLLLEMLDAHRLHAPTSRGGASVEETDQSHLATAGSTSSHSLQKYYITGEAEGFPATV

[6] = target: T2, CHIP ubiquitin E3 ligase (Homo sapiens, UniProt Q9UNE7); assay: Binding to CHIP ubiquitin E3 ligase
T2 sequence (Q9UNE7 1-303): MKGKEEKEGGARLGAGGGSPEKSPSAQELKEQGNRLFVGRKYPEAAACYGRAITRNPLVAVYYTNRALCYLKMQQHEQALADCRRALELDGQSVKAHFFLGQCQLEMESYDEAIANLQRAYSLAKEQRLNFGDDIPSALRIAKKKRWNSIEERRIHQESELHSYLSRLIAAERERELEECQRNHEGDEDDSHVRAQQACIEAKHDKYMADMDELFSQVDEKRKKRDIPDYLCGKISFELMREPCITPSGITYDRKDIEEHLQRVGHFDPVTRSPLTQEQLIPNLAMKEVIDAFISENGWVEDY

[7] = test system: estrogen receptor α (ERα); settings: breast cancer, Zhao et al. 2015; cited from earlier work

In the case of O=C1c2c(O)cc(O)cc2-c2c(-c3ccc(O)cc3)oc3cc(O)cc1c23 [Dip G, diptoindonesin G], the ERβ stability [1] is reported as “strongly stabilized”, the “E2-dependent ERE-Luciferase activity of ERα Y537S” value ([2]; T47D cells, co-treated with 10 nM E2, 10 μM, 24 hrs) is reported as “inhibited” and the “ligand-independent transcription activity of ERα Y537S mutant” value ([2]; T47D expressing ERα Y537S, preliminary data) is reported as “can be inhibited”. The MTD ([3]; oral gavage daily) was 50 mg/kg, the MTD ([3]; other: retro-orbital injection, retro-orbital injection daily) was 20 mg/kg and the half-life [4] was 1 h. For the same compound, the “direct binding to ERα” value [5] was “does not directly bind”, the “binding to CHIP ubiquitin E3 ligase” value [6] was “binds” and the “stability of ERα” value [7] was “decreases the stability”.
